In patent US5631394A, “Pharmaceutically active ceramide-related compounds” (The Liposome Company, Inc., priority 1995, dated 1997) one finds GI50 data, which are given here for eight compounds.

Each structure is given as a SMILES string. Where only a bound is given, the exact number is not on record here.

Common to all, as to type: cell-based
The test system of one experiment is SKMEL 28 cells. Briefly: sulforhodamine B cytotoxicity assay, 72 hour drug exposure, SKMEL 28. To be noted: Homo sapiens, SK-MEL-28, 72 h. In general terms: The SRB assay estimates cell density from bound dye.
The subject of experiment [1] is A549 cells. The experiment can be described thus: sulforhodamine B cytotoxicity assay, 72 hour drug exposure, A549. To be noted: Homo sapiens.
The next experiment relates to MCF7 cells. Briefly: sulforhodamine B cytotoxicity assay, 72 hour drug exposure, MCF7. To be noted: Homo sapiens, MCF7, 72 h.
A further experiment concerns CAKI 1 cells. The experiment can be described thus: sulforhodamine B cytotoxicity assay, 72 hour drug exposure, CAKI 1. To be noted: Homo sapiens, CAKI-1, 72 h.
The subject of another experiment is OVCAR 3 cells. The experiment can be described thus: sulforhodamine B cytotoxicity assay, 72 hour drug exposure, OVCAR 3. To be noted: Homo sapiens, OVCAR-3, 72 h.
The next experiment deals with HT 29 cells. Briefly: sulforhodamine B cytotoxicity assay, 72 hour drug exposure, HT 29. To be noted: Homo sapiens, HT-29, 72 h.
The subject of the next experiment is MCF7/ADR cells. The experiment can be described thus: sulforhodamine B cytotoxicity assay, 72 hour drug exposure, MCF7/ADR. To be noted: Homo sapiens, NCI/ADR-RES, 72 h.
In the next experiment the test system is LEWIS LUNG cells. Briefly: sulforhodamine B cytotoxicity assay, 72 hour drug exposure, Lewis lung. To be noted: Lewis lung carcinoma.
In experiment [2] the test system is A549 cells. The experiment can be described thus: in vitro sensitivity at different drug exposure times, A549. To be noted: Homo sapiens. The procedure: (§1) These studies were performed using a sulforrhodamine B assay (see Monks et al., J. Natl. Cancer Inst. (U.S.) 83:757 ([…])). Compounds were dissolved in ethanol. Results from these studies, presented in the following tables, are expressed as Gl50 values, that is, concentration of a drug (micromolar) required to inhibit growth of fifty percent of the cells.

The next experiment has as its system MCF 7/ADR cells. Briefly: in vitro sensitivity at different drug exposure times, MCF 7/ADR. To be noted: Homo sapiens, NCI/ADR-RES. The procedure: as §1
The subject of a further experiment is RPMI 7666 cells. The experiment can be described thus: sulforhodamine B cytotoxicity assay, 72 hour drug exposure, RPMI 7666. The procedure:
as §1

Another experiment has as its system U937 cells. The experiment can be described thus: sulforhodamine B cytotoxicity assay, 72 hour drug exposure, U937. To be noted: Homo sapiens, U-937. The procedure:
as §1

As for `CCCCCCCCCCCCC/C=C/[C@@H](O)[C@H](CO)NCCCCCCCCCC`, the GI50 in the experiment on SKMEL 28 cells was found to be 13 µM; in the experiment with A549 cells [1] (A549, 72 h), 4.99 ± 0.08 µM; in the experiment with MCF7 cells, 5.13 ± 0.01 µM; in the experiment on CAKI 1 cells, 6.18 ± 0.01 µM; in the experiment on OVCAR 3 cells, 12.5 ± 0.85 µM; in the experiment with HT 29 cells, 14.5 ± 0.14 µM. Further, the GI50 in the experiment with MCF7/ADR cells was 6.19 ± 0.43 µM; with LEWIS LUNG cells (72 h) it was 6.71 ± 1.04 µM.

In the case of `CCCCCCCCCCCCC/C=C/[C@@H](O)[C@H](CO)NCCCCCCCC`, the GI50 with SKMEL 28 cells is 4.96 ± 0.03 µM; in the experiment on A549 cells [1] (A549, 72 h), 4.91 ± 0.01 µM; with A549 cells [2] (1 hour pulse), 31.2 ± 5 µM; in the experiment with A549 cells [2] (4 hour pulse) it was 12.8 ± 1 µM; with A549 cells [2] (8 hour pulse), 6.7 ± 0.2 µM; in the experiment with A549 cells [2] (24 hour pulse), 5 ± 0.1 µM. Besides, the GI50 was found to be 4.8 ± 0.1 µM in the experiment on A549 cells [2] (48 hour pulse); 5 µM in the experiment with A549 cells [2] (72 hour continuous exposure); 4.88 ± 0.11 µM in the experiment with MCF7 cells; 4.64 ± 0.07 µM with CAKI 1 cells; 5.41 ± 0.13 µM in the experiment with OVCAR 3 cells; 5.72 ± 0.24 µM in the experiment on HT 29 cells. Further, the GI50 with MCF 7/ADR cells (1 hour pulse) was 34.3 ± 4.2 µM; with MCF 7/ADR cells (4 hour pulse), 14.2 ± 1.2 µM; with MCF 7/ADR cells (8 hour pulse), 8.9 ± 0.2 µM; with MCF 7/ADR cells (24 hour pulse), 4.8 ± 0.1 µM; in the experiment with MCF 7/ADR cells (48 hour pulse), 4.62 ± 0.1 µM; in the experiment on MCF 7/ADR cells (72 hour continuous exposure), 5 ± 0.1 µM. For the same compound, the GI50 turned out to be 4.88 ± 0.04 µM in the experiment with MCF7/ADR cells and 5.05 ± 0.02 µM in the experiment with LEWIS LUNG cells (72 h).

In the case of `CCCCCCCCCCCCC/C=C/[C@@H](O[Si](C)(C)C(C)(C)C)[C@H](CO[Si](C)(C)C(C)(C)C)NC(=O)CCCCC` [1,3-DiTBDMS C6-Ceramide, 1,3 DiTBDMS C6 Cer], the GI50 was greater than 200 µM in the experiment with A549 cells [1], greater than 200 µM in the experiment with RPMI 7666 cells, greater than 200 µM in the experiment on LEWIS LUNG cells and 134 ± 28.8 µM in the experiment on U937 cells.

For the compound `CCCCCCCCCCCCC/C=C/[C@@H](OC(C)=O)[C@H](COC(C)=O)NC(=O)CCCCC` [1,3-Diacetate C6-Ceramide], the GI50 in the experiment with A549 cells [1] (A549, 72 h) came to 6.1 ± 1.1 µM; with MCF7 cells, 15.5 ± 0.2 µM; with MCF7/ADR cells, 42.9 ± 3.6 µM; in the experiment on LEWIS LUNG cells (72 h), 4.9 ± 0.5 µM.

`CCCCCCCCCCCCC/C=C/[C@@H](O)[C@H](COC(C)=O)NC(=O)CCCCC` [1-Acetate C6-Ceramide, 1-acetate, C6-ceramide]: the concentration for 50% growth inhibition (GI50) in the experiment on A549 cells [1] (A549, 72 h) worked out at 12.7 ± 7.6 µM; with A549 cells [2] (1 hour pulse), 92.9 ± 1.3 µM; in the experiment with A549 cells [2] (4 hour pulse), 44.1 ± 1.3 µM; in the experiment on A549 cells [2] (8 hour pulse), 35.3 ± 2.5 µM; in the experiment on A549 cells [2] (24 hour pulse), 7.2 ± 0.2 µM; in the experiment on A549 cells [2] (48 hour pulse) it was 4.35 ± 0.1 µM. Moreover, the GI50 was 5.1 ± 0.1 µM with A549 cells [2] (72 hour continuous exposure); 9 ± 2 µM in the experiment on RPMI 7666 cells; greater than 100 µM with MCF 7/ADR cells (1 hour pulse); 59.5 ± 1.4 µM in the experiment with MCF 7/ADR cells (4 hour pulse); 42.7 ± 1.2 µM with MCF 7/ADR cells (8 hour pulse); 19.5 ± 0.8 µM in the experiment on MCF 7/ADR cells (24 hour pulse). Besides, the GI50 in the experiment with MCF 7/ADR cells (48 hour pulse) was determined as 15.6 ± 0.9 µM; with MCF 7/ADR cells (72 hour continuous exposure) it was 16.7 ± 1.7 µM; with LEWIS LUNG cells (72 h), 8.5 ± 0.4 µM; with U937 cells it was 11.3 ± 1 µM.

Turning to `CCCCCCCCCCCCC/C=C/C(=O)[C@H](COC(C)=O)NC(=O)CCCCC` [1-Acetate-3-one C6-Cer, 1-acetate-3-one C6-Cer], the GI50 in the experiment on A549 cells [1] (A549, 72 h) was 14.4 ± 0.1 µM; with MCF7 cells it was 6.7 ± 0.1 µM; with OVCAR 3 cells it was 15.3 ± 0.1 µM; with HT 29 cells, 13.9 ± 0.2 µM; in the experiment on MCF7/ADR cells it was 14.7 ± 0.1 µM; in the experiment on LEWIS LUNG cells (72 h), 14.5 ± 0.1 µM.

`CCCCCCCCCCCCC/C=C/[C@@H](O)[C@H](COC(=O)CCC)NC(=O)CCCCC` [1-Butyrate C6-Ceramide, 1-butyrate, C6-ceramide]: the GI50 in the experiment with A549 cells [1] (A549, 72 h) was 6.2 ± 0.4 µM; with A549 cells [2] (1 hour pulse) it was greater than 100 µM; in the experiment with A549 cells [2] (4 hour pulse), 52.9 ± 2.5 µM; in the experiment on A549 cells [2] (8 hour pulse), 36.5 ± 0.8 µM; in the experiment with A549 cells [2] (24 hour pulse), 8.6 ± 0.6 µM; in the experiment with A549 cells [2] (48 hour pulse), 4.7 ± 0.1 µM. The GI50 in the experiment with A549 cells [2] (72 hour continuous exposure) is 5.5 ± 0.2 µM; in the experiment with MCF7 cells it was 17.9 ± 10 µM; in the experiment with MCF 7/ADR cells (1 hour pulse) it was greater than 100 µM; in the experiment with MCF 7/ADR cells (4 hour pulse), 79.1 ± 5.3 µM; in the experiment on MCF 7/ADR cells (8 hour pulse), 44 ± 1.1 µM; in the experiment with MCF 7/ADR cells (24 hour pulse), 20.8 ± 1.8 µM. In addition, the GI50 in the experiment with MCF 7/ADR cells (48 hour pulse) came to 17.2 ± 0.1 µM; in the experiment with MCF 7/ADR cells (72 hour continuous exposure), 18.5 ± 0.4 µM; in the experiment with MCF7/ADR cells, 37.8 ± 8.06 µM; in the experiment on LEWIS LUNG cells (72 h), 6.4 ± 2.4 µM.

Consider `CCCCCCCCCCCCC/C=C/[C@@H](O)[C@H](COC(=O)C(C)C)NC(=O)CCCCC` [1-Isobutyrate C6-Ceramide, 1-isobutyrate, C6-ceramide], for which the GI50 is 7.9 ± 3.5 µM with A549 cells [1] (A549, 72 h); greater than 100 µM in the experiment on A549 cells [2] (1 hour pulse); greater than 100 µM in the experiment on A549 cells [2] (4 hour pulse); 40.2 ± 2.5 µM with A549 cells [2] (8 hour pulse); 8.4 ± 0.7 µM with A549 cells [2] (24 hour pulse); 5.2 ± 0.3 µM with A549 cells [2] (48 hour pulse). Also, the GI50 in the experiment on A549 cells [2] (72 hour continuous exposure) was 5.6 ± 0.2 µM; in the experiment with MCF 7/ADR cells (1 hour pulse), greater than 100 µM; in the experiment on MCF 7/ADR cells (4 hour pulse), greater than 100 µM; with MCF 7/ADR cells (8 hour pulse) it was 52.3 ± 1.6 µM; in the experiment on MCF 7/ADR cells (24 hour pulse), 22.7 ± 1.1 µM; with MCF 7/ADR cells (48 hour pulse), 18.7 ± 0.5 µM. The GI50 in the experiment on MCF 7/ADR cells (72 hour continuous exposure) amounted to 19.6 ± 1 µM; in the experiment on MCF7/ADR cells, 37.8 ± 4.67 µM.

One may read the GI50 as the concentration that inhibits growth by half. A lower GI50 goes with more potent growth inhibition.
